Experimental data published in patent publication US20030149005A1, “24-sulfur-substituted analogs of 1alpha, 25-dihydroxy vitamin D3” (priority 2001, published 2003).

Legend:
CYP27B1 = target: T1, CYP27B1 (UniProt O15528); experiment: Assay of CYP1-alpha hydroxylase (transfected COS-1 cells); assay type: cell-based; conditions: COS-1 cells transfected with CYP-1alpha hydroxylase cDNA, [3H-26,27]-25(OH)D3 substrate
T1 sequence (O15528 1-508): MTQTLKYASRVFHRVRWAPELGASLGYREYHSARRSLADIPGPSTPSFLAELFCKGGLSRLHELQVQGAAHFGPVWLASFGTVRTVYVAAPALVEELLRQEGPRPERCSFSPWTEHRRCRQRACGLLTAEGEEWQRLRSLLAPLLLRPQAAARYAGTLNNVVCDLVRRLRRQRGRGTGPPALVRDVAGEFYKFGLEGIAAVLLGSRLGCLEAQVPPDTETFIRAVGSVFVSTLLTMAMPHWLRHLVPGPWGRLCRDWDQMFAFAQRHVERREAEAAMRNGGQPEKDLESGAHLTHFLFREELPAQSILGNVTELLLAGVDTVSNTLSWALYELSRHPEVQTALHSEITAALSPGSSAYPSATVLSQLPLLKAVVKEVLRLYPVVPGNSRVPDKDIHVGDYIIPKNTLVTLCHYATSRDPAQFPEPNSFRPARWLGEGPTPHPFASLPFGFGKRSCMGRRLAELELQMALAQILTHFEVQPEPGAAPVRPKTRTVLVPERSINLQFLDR
Procedure: Assay of CYP1-Alpha Hydroxylase (Using Transfected COS-1 Cells)
1. COS-1 cells (50-80% confluent)
2. FuGene 6 Transfection Reagent
3. PcDNA vector containing CYP-1alpha hydroxylase cDNA (1 μg/μl)
5. DMEM Medium (serum-free)
(ii) Transfection Cocktail Preparation (The Amount Depends on How Many Wells Transfected)
1. To a sterile tube, add serum-free medium (100 μl per well), Then add FuGene 6 Reagent (3 μl per well). Tap gently to mix. Pay attention to the order.
2. Add DNA solution (1 μg per well) to the prediluted FuGene 6 Reagent from step 2
3. Gently tap the tube to mix the contents. […] Incubate for 15 min at room temperature (no more than 45 min).
1. Trypsinize Cos-1 cells, centrifuge cell suspension, suspend cells pellet in DMEM medium+10% FCS.
2. Dilute the cells suspension to 750,000 cell/ml (75 cell/square),
1. Add 1.7 ml DMEM medium+10 O %FCS to each well of 6 well plate.
2. Transfer the correct volume of the cell suspension (200 μl/well) to the transfection cocktail. Mix them gently
3. Add 0.3 ml of the mixture to each well. Make sure that the same amount cells are added to each well. Swirl the wells to ensure even dispersal.
4. Incubate the cells for 24 hours at 37° C., 5% CO2 until enzyme activity assay.
(B) Enzyme Activity Assay
1. Wash cells once with PBS. Be careful, don't disturb the attached cells
2. Add 0.55 ml medium (DMEM+1%BSA) each well.
3. Add 0.025 ml medium containing test compounds
4. Incubate the cells for 10 minutes
6. Incubate the cells for 2 hour.
7. Add 1.5 ml Methanol to stop reaction
8. Add internal standard.
9. Transfer the medium to labeled tube.
10. Add 0.75 ml dichloromethane, vortex and keep in room temperature for 15 minutes.
11. Add 0.75 ml dichloromethane and 0.75 ml saturated KCl
12. Vortex and centrifuge
13. Remove upper phase and dry the lower phase in Speed-Vac
14. Add 110 μl mobile phase, vortex and centrifuge for 5 min.
15. Transfer 105 μl to the insert in HPLC vial.
16. HPLC analysis conditions:
Solvent: Hexane/isopropanol/methanol (91/7/2)
Detector: UV detector and radioactive detector.

CYP24 = target: T2, CYP24 (Homo sapiens, UniProt Q07973); experiment: CYP24 enzyme assay (induced HPK1A-ras cells); assay type: cell-based; conditions: [3H]-1,25(OH)2D3 substrate
T2 construct: When the HPK1A-ras cells are 80-90% confluent, add 1 μL 10^−5 M 1,25(OH)2D3 to 1 mL medium; endogenous in cells; host or cells: HPK1A-ras cells induced with 10^-8 M 1,25(OH)2D3
T2 sequence (Q07973 36-514): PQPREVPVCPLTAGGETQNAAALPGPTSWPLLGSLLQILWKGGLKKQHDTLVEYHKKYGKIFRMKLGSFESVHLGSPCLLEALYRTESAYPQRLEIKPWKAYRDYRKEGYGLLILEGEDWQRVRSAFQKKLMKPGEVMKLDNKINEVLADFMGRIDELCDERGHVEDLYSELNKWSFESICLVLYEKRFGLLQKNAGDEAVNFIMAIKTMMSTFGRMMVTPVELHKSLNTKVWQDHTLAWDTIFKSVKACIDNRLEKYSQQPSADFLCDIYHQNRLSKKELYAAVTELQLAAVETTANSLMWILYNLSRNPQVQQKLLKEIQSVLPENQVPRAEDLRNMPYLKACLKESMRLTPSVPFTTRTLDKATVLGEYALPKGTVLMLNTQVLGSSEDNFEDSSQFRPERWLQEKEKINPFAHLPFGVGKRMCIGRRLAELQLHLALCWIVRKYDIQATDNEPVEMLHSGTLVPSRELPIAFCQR
Procedure: CYP24 Enzyme Assay (Induced KPK1A-ras Cells)
(i) Material and Reagents:
Saturated KCl: KCl 30 g, H2O400 ml
1. Induction of HPK1A-ras cells (The day before assay)
When the HPK1A-ras cells are 80-90% confluent, add 1 μL 10^−5 M 1,25(OH)2D3 to 1 mL medium in the plate (final concentration is 10^−8 M).
2. Preparation of cell suspension
After 18 to 20 hours induction, remove the medium and wash the cell twice with PBS. Then tripsinize the cells from plate, centrifuge (2,000 rpm, 5 min) and suspend cells pellet in DMEM medium+1%BSA.
Count the cells and adjust cells density to 250,000/150 μL, add 150 μL cell suspension to each well in 48-well plate. (including 3 well as no cell control, and 3 well cells without drug or inhibitor as control).
3. Add 25 μL ketoconazole (final concentration 10^−5 M, 10^−6 M, 10^−7 M, 10^−1 M) or drugs into each designated well. Keep the plate in 37° C. for 10 min.
4. Preparation of substrate
Take certain amount of DMEM+1%BSA medium (25*Well number+200) μL to a tube, add certain amount of 3H-1,25(OH)2D3 (well number+2) μL and certain amount of 100 mM DPPD (well number/5) μL and mix them by vortex.
Add 25 mL substrate to each well, incubate the plate at 37° C. for 3 hour.
Add 25 mL substrate to counting plate (2 well) as a total count.
6. Lipid extraction and counting
Add 500 μL methanol to each well to stop the reaction, transfer them to tube
Add 250 μL dichloromethane and vortex.
Add 250 μL dichloromethane and 250 μL saturated KCl, and vortex.
Centrifuge at 4000 rpm for 5 min.
Transfer 100 μL of aqueous phase (upper phase) to counting plastic counting plate. Add 600 μL of scintillation fluid to each well. Count the plate in scintillation counter.
7. Calculation enzyme activity
CPM of cell control after subtraction of CPM of NCC is as 100% enzyme activity.
Enzyme activity=(CPM in test compounds well —CPM in NCC well)/(CPM in Cell control−CPM in NCC well)*100%

CYP27A1 = target: T3, CYP27A1 (Homo sapiens, UniProt Q02318); experiment: CYP27A1 enzyme assay; assay type: biochemical
T3 construct: fused on or other part: Possibly fused to adrenodoxin reductase and adrenodoxin, if the fusion enzyme of Dilworth et al. 1996 was used
T3 sequence (Q02318 34-531): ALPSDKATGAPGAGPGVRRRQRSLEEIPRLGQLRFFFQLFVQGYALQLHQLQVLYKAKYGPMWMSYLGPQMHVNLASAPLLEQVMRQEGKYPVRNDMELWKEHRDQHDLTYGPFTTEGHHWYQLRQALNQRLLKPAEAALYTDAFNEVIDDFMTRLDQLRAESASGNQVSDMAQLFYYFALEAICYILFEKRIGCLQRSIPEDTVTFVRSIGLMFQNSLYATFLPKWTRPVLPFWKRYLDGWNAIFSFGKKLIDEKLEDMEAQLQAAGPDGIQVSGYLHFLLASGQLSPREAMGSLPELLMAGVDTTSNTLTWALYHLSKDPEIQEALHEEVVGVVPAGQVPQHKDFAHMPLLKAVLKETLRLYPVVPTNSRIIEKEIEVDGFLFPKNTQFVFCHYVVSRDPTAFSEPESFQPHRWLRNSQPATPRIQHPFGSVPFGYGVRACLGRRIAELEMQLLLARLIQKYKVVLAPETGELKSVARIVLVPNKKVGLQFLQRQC
Source text: Dilworth F J, Black S M, Guo Y D, Miller W L, Jones G. Construction of a P450c27 fusion enzyme: a useful tool for analysis of vitamin D3 25-hydroxylase (1996) Biochem J 320:267-271
Sawada N, Sakaki T, Ohta M, Inouye K. Metabolism of vitamin D (3) by human CYP27A1 (2000) Biochem Biophys Res Commun 273(3):977-84

[1] = Calcium excretion (hypercalcemia assay) in rats; assay type: in vivo; conditions: for urinary calcium levels: concentration 20 fold greater than the concentration of calcitriol
Procedure: Compound I(a) was tested for its effect on calcium excretion and weight gain in rats using a protocol described in Posner et al. J. Med. Chem. 41, 3008-3014, 1998.

Row | Structure (SMILES) | IC50 (CYP27B1) [nM] | IC50 (CYP24) [nM] | IC50 (CYP27A1) [nM] | urinary calcium levels [1] | urinary calcium levels ([1]; listed as Ia) | calcemic activity ([1]; calcium excretion protocol)
1 | C=C1/C(=C\C=C2/CCC[C@]3(C)[C@@H]([C@H](C)CCS(=O)(=O)C(C)(C)C)CC[C@@H]23)C[C@@H](O)C[C@@H]1O [I(v)] | > 10000 | 219 |  |  |  | 
2 | C=C1/C(=C\C=C2/CCC[C@]3(C)[C@@H]([C@H](C)CCS(=O)(=O)c4ccccc4)CC[C@@H]23)C[C@@H](O)C[C@@H]1O [I(a)] | > 10000 |  | > 10000 | did not show an increase in urinary calcium levels | did not increase the levels of calcium in the urine | 
3 | C=C1/C(=C\C=C2/CCC[C@]3(C)C([C@H](C)CCSC(C)(C)C)=CC[C@@H]23)C[C@@H](O)C[C@@H]1O [I(gg)] | 8460 | 467 |  |  |  | 
4 | C=C1/C(=C\C=C2/CCC[C@]3(C)[C@@H]([C@H](C)CCS(=O)(=O)c4ccc(Cl)c(Cl)c4)CC[C@@H]23)C[C@@H](O)C[C@@H]1O [I(i)] | > 1000 | 92 |  |  |  | 
5 | C=C1/C(=C\C=C2/CCC[C@]3(C)[C@@H]([C@H](C)CCS(=O)(=O)C(C)C)CC[C@@H]23)C[C@@H](O)C[C@@H]1O [I(w)] | 9200 | 90 |  |  |  | 
6 | C=C1/C(=C\C=C2/CCC[C@]3(C)[C@@H]([C@H](C)CCS(=O)(=O)c4ccc(C)cc4)CC[C@@H]23)C[C@@H](O)C[C@@H]1O [I(g)] | > 1000 | 212 |  |  |  | 
7 | C[C@H](CCS(=O)(=O)c1ccccc1)[C@H]1CC[C@H]2/C(=C/C=C3C[C@@H](O)C[C@H](O)C3)CCC[C@]12C [I(u)] |  | 160 |  |  |  | strongly non-calcemic
8 | C=C1/C(=C\C=C2/CCC[C@]3(C)[C@@H]([C@H](C)CCS(=O)(=O)c4ccc(Cl)cc4)CC[C@@H]23)C[C@@H](O)C[C@@H]1O [I(e)] | > 1000 | 94 |  |  |  | 
